In EP3344255B1 (priority 2016, dated 2017):
Read-outs that look alike come from different tables or passages of the source.

Experiments:
Assay type in all cases: cell-based, Acinetobacter baumannii
[1] = system: colistin-susceptible A.baumannii strains; test: Colistin gradient test (E-test) on Mueller Hinton Agar with and without methylene blue
Text: (§1) Firstly, colistin-susceptible A.baumannii strains obtained from the same passage were subcultured on media (Mueller Hinton Agar) containing 14 mcg/ml methylene blue and without methylene blue and colistin gradient test (E-test) strips were placed on them.

[2] = system: colistin-susceptible A.baumannii strains; test: Growth on Mueller Hinton Agar with and without methylene blue; conditions: 14 mcg/ml methylene blue in Mueller Hinton Agar
Text: as §1

[3] = system: A.baumannii bacteria with resistance to colistin
Description: as §1
Later, the same tests were performed on A.baumannii bacteria with resistance to colistin. […] These bacterial varieties with resistance to colistin were tested based on species with different levels of MIC (minimum inhibitory concentrations) for colistin.

[4] = system: A.baumannii bacteria with resistance to colistin; test: Colistin gradient test (E-test) on Mueller Hinton Agar with and without methylene blue
Description: as §1
Later, the same tests were performed on A.baumannii bacteria with resistance to colistin. While there was growth in the medium without methylene blue (Mueller Hinton Agar), there was no growth in the medium containing methylene blue. […] These bacterial varieties with resistance to colistin were tested based on species with different levels of MIC (minimum inhibitory concentrations) for colistin. […] In other words, it's understood these bacteria were inhibited. […] The probable cause of this reduction is that those with MIC values more than 0.5 mcg/ml in the bacterial population were selectively killed by methylene blue. […] However, the inhibition rate for strains with high MIC value (like 32 mcg/ml) was higher than the inhibition rate for strains with low MIC value (like 4-8 mcg/ml). In other words, the susceptiblity to methylene blue is proportional to the colistin resistance levels of colistin-resistant A.baumannii bacteria.
These effects of inhibition of colistin-resistant A.baumannii bacteria by methylene blue are clearly understood from the appearance on MHA (Mueller Hinton Agar) media. Image 1 and 2 provide the appearance of A.baumannii strains with homogeneous resistance to colistin on MHA (Mueller Hinton Agar) media. […] Images 3 and 4 provide images of heteroresistant A.baumannii strains with resistance to colistin on MHA.

## CN(C)c1ccc2nc3ccc(=[N+](C)C)cc-3sc2c1 [methylene blue]
[1]; effect of methylene blue, strains with colistin MIC values of 0.5 mcg/ml or less
  increase of susceptibility to colistin: no increased susceptibility
[1]; medium containing 14 mcg/ml methylene blue, colistin susceptible strains
  susceptibility of A.baumannii strain to colistin: slightly increased
[2]
  growth inhibition: did not inhibit growth
[3]; 14 mcg/ml methylene blue on MHA, heteroresistant strain, internal zone with colistin MIC 32 mcg/ml
  growth inhibition: totally inhibited
[3]; 14 mcg/ml methylene blue on MHA, homogeneously resistant strain with colistin MIC 32 mcg/ml (Image 2)
  growth inhibition: completely inhibited
[3]; medium containing methylene blue (14 mcg/ml), colistin resistant bacteria, growth in medium without methylene blue
  growth: no growth
[3]; methylene blue medium, bacteria with high levels of colistin resistance (MIC value 32 mcg/ml)
  growth inhibition: completely stopped growth
[3]; methylene blue medium, bacteria with low levels of colistin resistance (MIC value 1 or 3 mcg/ml)
  growth inhibition: did not completely stop growing
[3]; methylene blue solution, all subpopulations with colistin MIC value above 0.5 mcg/ml
  inhibitory effect on bacterial subpopulations: inhibitory effects

## Colistin (polymyxin E)
[4]; 14 mcg/ml methylene blue on MHA, heteroresistant strain, outer zone (MIC 2 mcg/ml before)
  MIC: 0.5 µg/mL
[4]; MHA without methylene blue, heteroresistant strain, internal zone (Image 3)
  MIC: 32 µg/mL
[4]; MHA without methylene blue, heteroresistant strain, outer zone (Image 3)
  MIC: 2 µg/mL
[4]; MHA without methylene blue, strain with homogeneous resistance to colistin (Image 1)
  MIC: 32 µg/mL
[4]; with methylene blue, bacteria with low levels of colistin resistance (MIC 1 or 3 mcg/ml before)
  MIC (minimum inhibitory concentration): 0.5 µg/mL
[4]; without methylene blue, bacteria with high levels of colistin resistance
  MIC (minimum inhibitory concentration): 32 µg/mL
[1]; medium containing methylene blue vs without, colistin susceptible strains
  regression of colistin MIC: ~0.5 µg/mL
